Measurements from ChEMBL document CHEMBL1201862, “PubChem BioAssay data set” (2004).
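All cell lines were grown in 96-well plates and treated with compound for 48 hours. At the GI50, growth is halved.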 Activity calls are given as the source filed them. Rule as the data show it: active = GI50 up to about 1.1 µM and inactive = higher.

Legend:
Experiment in all cases: DTP human tumour cell line panel, 48 h
LOX IMVI = system: LOX IMVI
UACC-62 = system: UACC-62
SK-MEL-2 = system: SK-MEL-2
IGROV-1 = system: IGROV-1
A549 = system: A549
DU-145 = system: DU-145
KM12 = system: KM12
MDA-N = system: MDA-N
HCT-116 = system: HCT-116
ACHN = system: ACHN
NCI-H460 = system: NCI-H460
CAKI-1 = system: CAKI-1
OVCAR-5 = system: OVCAR-5
EKVX = system: EKVX
M14 = system: M14
UACC-257 = system: UACC-257
COLO 205 = system: COLO 205
Hs-578T = system: Hs-578T
RXF 393 = system: RXF 393

Row | SMILES | GI50 (LOX IMVI) | GI50 (UACC-62) | GI50 (SK-MEL-2) | GI50 (IGROV-1) | GI50 (A549) | GI50 (DU-145) | GI50 (KM12) | GI50 (MDA-N) | GI50 (HCT-116) | GI50 (ACHN) | GI50 (NCI-H460) | GI50 (CAKI-1) | GI50 (OVCAR-5) | GI50 (EKVX) | GI50 (M14) | GI50 (UACC-257) | GI50 (COLO 205) | GI50 (Hs-578T) | GI50 (RXF 393)
1 | COc1cc(/C=N/c2ccc(Oc3ccc(Cl)cc3)c(Cl)c2)cc(OC)c1OC | 16.2 µM (inactive) | 15.3 µM (inactive) | 17.8 µM (inactive) | 21.8 µM (inactive) | 18.5 µM (inactive) | 11.7 µM (inactive) | 21.3 µM (inactive) | 22.6 µM (inactive) | 13.8 µM (inactive) | 29.1 µM (inactive) | 19.3 µM (inactive) | 22.9 µM (inactive) | 34.7 µM (inactive) | 21.1 µM (inactive) | 23.3 µM (inactive) | 20.7 µM (inactive) | 17.2 µM (inactive) | 15.8 µM (inactive) | –
2 | O=S(=O)(O)c1cc(S(=O)(=O)O)c2c(/N=N/c3ccc(/N=N/c4ccccc4)cc3)c(O)ccc2c1 | – | > 100 µM (inactive) | > 100 µM (inactive) | > 100 µM (inactive) | > 100 µM (inactive) | > 100 µM (inactive) | > 100 µM (inactive) | > 100 µM (inactive) | > 100 µM (inactive) | > 100 µM (inactive) | > 100 µM (inactive) | > 100 µM (inactive) | > 100 µM (inactive) | > 100 µM (inactive) | > 100 µM (inactive) | > 100 µM (inactive) | > 100 µM (inactive) | > 100 µM (inactive) | > 100 µM (inactive)
3 | CNc1nc(N)c(N=O)c(Nc2ccc(Br)cc2)n1 | > 100 µM (inactive) | > 100 µM (inactive) | > 100 µM (inactive) | > 100 µM (inactive) | > 100 µM (inactive) | > 100 µM (inactive) | > 100 µM (inactive) | > 100 µM (inactive) | > 100 µM (inactive) | 53.2 µM (inactive) | > 100 µM (inactive) | – | > 100 µM (inactive) | 13.7 µM (inactive) | – | > 100 µM (inactive) | > 100 µM (inactive) | 5.35 µM (inactive) | > 100 µM (inactive)
4 | O=C1CCCCN1C(=O)c1ccc([N+](=O)[O-])cc1 | > 100 µM (inactive) | 37.3 µM (inactive) | – | > 100 µM (inactive) | > 100 µM (inactive) | > 100 µM (inactive) | > 100 µM (inactive) | 57.7 µM (inactive) | > 100 µM (inactive) | > 100 µM (inactive) | > 100 µM (inactive) | > 100 µM (inactive) | > 100 µM (inactive) | > 100 µM (inactive) | > 100 µM (inactive) | > 100 µM (inactive) | – | > 100 µM (inactive) | > 100 µM (inactive)
5 | Cc1ccc(OCC2OC(n3cnc4c(N(C)C)nc(Br)nc43)CC2Oc2ccc(C)cc2)cc1 (configuration not stated) | > 100 µM (inactive) | > 100 µM (inactive) | > 100 µM (inactive) | > 100 µM (inactive) | > 100 µM (inactive) | > 100 µM (inactive) | > 100 µM (inactive) | > 100 µM (inactive) | > 100 µM (inactive) | > 100 µM (inactive) | > 100 µM (inactive) | > 100 µM (inactive) | > 100 µM (inactive) | > 100 µM (inactive) | > 100 µM (inactive) | > 100 µM (inactive) | > 100 µM (inactive) | > 100 µM (inactive) | –
6 | C/C(=C/CC[C@]1(CO)CC[C@]2(CO)[C@H](CC[C@@H]3[C@@]4(C)CC[C@H](OC5OCC(O)C(O)C5OC5OC(CO)C(O)C(O)C5O)C(C)(C)[C@@H]4CC[C@]32C)[C@H]1O)CO (some centres not stated) | > 100 µM (inactive) | > 100 µM (inactive) | – | > 100 µM (inactive) | > 100 µM (inactive) | > 100 µM (inactive) | > 100 µM (inactive) | > 100 µM (inactive) | > 100 µM (inactive) | > 100 µM (inactive) | > 100 µM (inactive) | > 100 µM (inactive) | > 100 µM (inactive) | > 100 µM (inactive) | > 100 µM (inactive) | > 100 µM (inactive) | > 100 µM (inactive) | > 100 µM (inactive) | > 100 µM (inactive)
7 | Clc1cccc(Cl)c1C1SCC2=Nc3ccccc3CN21 (configuration not stated) | 19.1 µM (inactive) | 27.4 µM (inactive) | – | 22.9 µM (inactive) | 20.5 µM (inactive) | 25 µM (inactive) | 20.8 µM (inactive) | 36.8 µM (inactive) | 12.1 µM (inactive) | – | 19.5 µM (inactive) | 60.3 µM (inactive) | 41.5 µM (inactive) | 23.7 µM (inactive) | 18.4 µM (inactive) | 34.7 µM (inactive) | 14.1 µM (inactive) | 24.8 µM (inactive) | 27.8 µM (inactive)
8 | COc1ncc(/C=C2\OC(=O)c3ccccc32)c(OC)n1 | 7.16 µM (inactive) | – | – | 4.48 µM (inactive) | 17.5 µM (inactive) | 88.9 µM (inactive) | > 100 µM (inactive) | 50 µM (inactive) | > 100 µM (inactive) | 24.4 µM (inactive) | 17.9 µM (inactive) | 0.21 µM (active) | > 100 µM (inactive) | 23.5 µM (inactive) | 72.3 µM (inactive) | 57.3 µM (inactive) | > 100 µM (inactive) | 10.1 µM (inactive) | 7 µM (inactive)
9 | NCCCCN(CCCN)Cc1ccc2ccccc2c1 | 29.2 µM (inactive) | 95.7 µM (inactive) | – | 25.2 µM (inactive) | 51.9 µM (inactive) | 66.7 µM (inactive) | 27.4 µM (inactive) | 21.3 µM (inactive) | 36.7 µM (inactive) | 22.8 µM (inactive) | 15.7 µM (inactive) | 13.8 µM (inactive) | 28.8 µM (inactive) | 21.3 µM (inactive) | 57 µM (inactive) | > 100 µM (inactive) | 35.2 µM (inactive) | 11.3 µM (inactive) | 63.4 µM (inactive)
10 | CSc1ccc(/C=C2\N=C(c3ccccc3)N(NC(=O)c3c(Cl)c(Cl)c(Cl)c(Cl)c3-c3nc4ccccc4[nH]3)C2=O)cc1 | 30.9 µM (inactive) | 19.2 µM (inactive) | 34.9 µM (inactive) | 1.79 µM (inactive) | 30.1 µM (inactive) | 28.4 µM (inactive) | 6.84 µM (inactive) | 6.87 µM (inactive) | 25.2 µM (inactive) | 28.8 µM (inactive) | 4.43 µM (inactive) | 21.7 µM (inactive) | 81.7 µM (inactive) | 25.5 µM (inactive) | 29.6 µM (inactive) | 28.4 µM (inactive) | 22.4 µM (inactive) | 34.8 µM (inactive) | –
11 | Cc1cn(CC(=S)NCCc2c[nH]c3ccccc23)c(=O)[nH]c1=O | > 100 µM (inactive) | 70 µM (inactive) | > 100 µM (inactive) | > 100 µM (inactive) | 74.1 µM (inactive) | > 100 µM (inactive) | > 100 µM (inactive) | 48 µM (inactive) | 76.7 µM (inactive) | 69.3 µM (inactive) | – | – | 33 µM (inactive) | 17 µM (inactive) | > 100 µM (inactive) | – | > 100 µM (inactive) | 84.1 µM (inactive) | > 100 µM (inactive)
